pKi: −log10 of the molar value. Activity calls are given as the source filed them. No cut-off for these calls is given here.
How the values were obtained:
Escherichia coli = assay: Competitive inhibition of Escherichia coli pEK17/EK1104 ATCase catalytic subunit assessed as formation of N-carbamoyl-L-aspartate by colorimetric assay
[1] = Inhibition of Escherichia coli pEK17/EK1104 ATCase catalytic subunit assessed as formation of N-carbamoyl-L-aspartate by colorimetric assay relative to carbamyl phosphate

Structure (SMILES) | Activity (Escherichia coli) | pKi [1]
O=C(O)C[C@H](NC(=O)CP(=O)(O)CO)C(=O)O | Active | 6.71
O=C(O)C[C@H](NC(=O)C[PH](=O)O)C(=O)O | Active | 6.38
O=C(O)C[C@H](NC(=O)CP(=O)(O)O)C(=O)O [PALA] | Active | 7.80
